test system: Na^+-dependent Cl^−/HCO3^− exchanger (NCBE); test: Inhibition of the Na+-dependent Cl−/HCO3− exchanger (NCBE) in human endothelial cells (pHi recovery, BCECF fluorescence, FLIPR); format: cell-based; conditions: 10 μM
Method: Inhibition of the Na^+-dependent Cl^−/HCO3^− exchanger (NCBE) in human endothelial cells
Human endothelial cells (ECV-304) were detached form culture flasks with the aid of trypsin/EDTA buffer (0.05/0.02% in phosphate buffer) and, after centrifugation (100 g, 5 min), taken up in a buffered saline solution (mmol/l: 115 NaCl, 20 NH4Cl, 5 KCl, 1 CaCl2, 1 MgSO4, 20 N-(2-hydroxyethyl)-piperazine-N[…]-2-ethanesulfonic acid (HEPES), 5 glucose and 1 g/l of bovine serum albumin; pH 7.4). This cell suspension was incubated at 37 °C. for 20 min with 5 μM BCECF acetoxymethyl ester. The cells were then washed and resuspended in a sodium- and bicarbonate-free buffer solution (mmol/l: 5 HEPES, 133.8 choline chloride, 4.7 KCl, 1.25 MgCl2, 0.97 K2HPO4, 0.23 KH2PO4, 5 glucose; pH 7.4).
For the subsequent fluorescence measurement in the FLIPR (Fluorescent Imaging Plate Reader), 100 μl of this cell suspension in each case containing 20,000 cells were added by pipette per well of a 96-well microtiter plate and this microtiter plate was centrifuged (100 g, 5 min). In the FLIPR, 100 μl of buffer solution in each case were then removed from a further prepared microtiter plate and added by pipette to each of the 96 wells of the measuring plate. In this case, for a 100% control, i.e. a recovery of the intracellular pH (pHi) by means of the NCBE, a bicarbonate- and sodium-containing buffer solution (mmol/l: 5 HEPES, 93.8 NaCl, 40 NaHCO3, 4.7 KCl, 1.25 CaCl2, 1.25 MgCl2, 0.97 Na2HPO4, 0.23 NaH2PO4, 5 glucose; pH 7.4) which contained 50 μM HOE 642 was used. For a 0% control, i.e. no pHi recovery at all, a bicarbonate-free, sodium-containing buffer solution (mmol/l: 5 HEPES, 133.8 NaCl, 4.7 KCl, 1.25 CaCl2, 1.25 MgCl2, 0.97 Na2HPO4, 0.23 NaH2PO4, 5 glucose; pH 7.4) to which 50 μM HOE 642 were also added was employed. The compounds according to the invention were added in various concentrations of the sodium- and bicarbonate-containing solution. After addition of the buffer solutions to the dye-loaded acidified cells situated in the measuring plate, the increase in the fluorescence intensity which corresponded to an increase in the pHi was determined in each well of the microtiter plate.
The kinetics were in this case recorded at 35° C. over a period of 2 minutes. The increase in the fluorescence intensities for different concentrations of the compounds according to the invention was related to the two controls and from this the inhibitory action of the substances was determined.

Point of comparison: N#CNS(=O)(=O)c1ccccc1-c1ccc(CN(Cc2ccccc2)C(=O)NC2CCCCC2)cc1 [Example 300], “Residual activity % of the NCBE at 10 μM” value 29.4%. Against it:
- N#CNS(=O)(=O)c1ccccc1-c1ccc(CN(C(=O)CC2CCCC2)C2CCc3ccccc32)cc1 (centres unmarked) [Example 364] — higher, 52.6%
- COCCC(=O)N(Cc1ccc(-c2ccccc2S(=O)(=O)NC#N)cc1)C1CCCc2ccccc21 (centres unmarked) [Example 325] — higher, 33.8%
- COCCN(Cc1ccc(-c2ccccc2S(=O)(=O)NC#N)cc1)C(=O)C(=O)c1cccs1 [Example 195] — higher, 58.3%
- N#CNS(=O)(=O)c1ccccc1-c1ccc(CN(Cc2cccc3ccccc23)C(=O)Cc2ccc(O)cc2)cc1 [Example 284] — higher, 52.9%
- N#CNS(=O)(=O)c1ccccc1-c1ccc(CN(CC2CCCCC2)C(=O)CCC2CCCCC2)cc1 [Example 267] — higher, 57.9%
- COc1cccc(CN(Cc2ccc(-c3ccccc3S(=O)(=O)NC#N)cc2)C(=O)Cc2ccccc2)c1 [Example 126] — higher, 53.7%
- N#CNS(=O)(=O)c1ccccc1-c1ccc(CN(CCOc2ccccc2)C(=O)Cc2cccs2)cc1 [Example 142] — lower, 27.1%
- COc1ccccc1CN(Cc1ccc(-c2ccccc2S(=O)(=O)NC#N)cc1)C(=O)c1cccs1 [Example 84] — higher, 54.7%
- N#CNS(=O)(=O)c1ccccc1-c1ccc(CN(C(=O)Cc2cccs2)C(C(=O)O)c2ccccc2)cc1 (centres unmarked) [Example 282] — higher, 89.0%
- COc1ccccc1C(=O)N(CC=C(C)CCC=C(C)C)Cc1ccc(-c2ccccc2S(=O)(=O)NC#N)cc1 [Example 333] — lower, 22.3%
- COc1cccc(CN(Cc2ccc(-c3ccccc3S(=O)(=O)NC#N)cc2)C(=O)c2cc3ccccc3s2)c1 [Example 76] — higher, 87.3%
- N#CNS(=O)(=O)c1ccccc1-c1ccc(CN(Cc2cccc3ccccc23)C(=O)Cc2cccs2)cc1 [Example 271] — lower, 15.9%
- COc1ccc(CN(Cc2ccc(-c3ccccc3S(=O)(=O)NC#N)cc2)C(=O)c2ccc(C)cc2)cc1 [Example 70] — higher, 94.7%
- Cc1ccc(CN(Cc2ccc(-c3ccccc3S(=O)(=O)NC#N)cc2)C(=O)c2cc3ccccc3s2)cc1 [Example 75] — higher, 80.3%
- COc1cccc(CN(Cc2ccc(-c3ccccc3S(=O)(=O)NC#N)cc2)C(=O)c2ccccc2Cl)c1 [Example 106] — higher, 98.9%
- N#CNS(=O)(=O)c1ccccc1-c1ccc(CN(Cc2ccc(Cl)cc2)C(=O)C2CCCCC2)cc1 [Example 16] — higher, 56.4%
- N#CNS(=O)(=O)c1ccccc1-c1ccc(CN(CC2CCCO2)C(=O)Cc2cccs2)cc1 (centres unmarked) [Example 318] — lower, 16.4%
- COc1ccc(CCN(Cc2ccc(-c3ccccc3S(=O)(=O)NC#N)cc2)C(=O)c2cccs2)cc1 [Example 90] — higher, 84.2%
- COc1cccc(CC(=O)N(CCO)Cc2ccc(-c3ccccc3S(=O)(=O)NC#N)cc2)c1 [Example 20] — higher, 37.1%
- COc1cc(CN(Cc2ccc(-c3ccccc3S(=O)(=O)NC#N)cc2)C(=O)CC(C)(C)C)cc(OC)c1OC [Example 162] — higher, 30.2%
- N#CNS(=O)(=O)c1ccccc1-c1ccc(CN(Cc2ccc3ccccc3c2)C(=O)CC2CCCC2)cc1 [Example 360] — higher, 36.9%
- CC(=O)N(CCc1cccs1)Cc1ccc(-c2ccccc2S(=O)(=O)NC#N)cc1 [Example 179] — higher, 78.3%
- N#CNS(=O)(=O)c1ccccc1-c1ccc(CN(Cc2nc3ccccc3[nH]2)C(=O)Cc2ccsc2)cc1 [Example 232] — higher, 62.6%
- C[C@@H](c1ccccc1)N(Cc1ccc(-c2ccccc2S(=O)(=O)NC#N)cc1)C(=O)Cc1ccccc1 [Example 123] — higher, 72.2%
- N#CNS(=O)(=O)c1ccccc1-c1ccc(CN(Cc2cccc(Cl)c2)C(=O)Cc2cccs2)cc1 [Example 273] — higher, 32.4%
- CC(C)=CCCC(C)=CCN(Cc1ccc(-c2ccccc2S(=O)(=O)NC#N)cc1)C(=O)CC1CCCC1 [Example 363] — higher, 48.3%
- CN(Cc1ccc(-c2ccccc2S(=O)(=O)NC#N)cc1)C(=O)CCCc1cccs1 [Example 190] — higher, 43.4%
- CC(=O)N(Cc1ccc(F)cc1)Cc1ccc(-c2ccccc2S(=O)(=O)NC#N)cc1 [Example 185] — higher, 85.0%
- N#CNS(=O)(=O)c1ccccc1-c1ccc(CN(Cc2ccccc2Cl)C(=O)C(C(=O)Cc2ccccc2)c2ccccc2)cc1 (centres unmarked) [Example 131] — higher, 97.6%
- CC(C)CN(Cc1ccc(-c2ccccc2S(=O)(=O)NC#N)cc1)C(=O)c1cccs1 [Example 82] — higher, 99.8%
- N#CNS(=O)(=O)c1ccccc1-c1ccc(CN(C(=O)CC2CCCCC2)C2CCc3ccccc32)cc1 (centres unmarked) [Example 354] — higher, 37.2%
- C[C@@H](c1ccccc1)N(Cc1ccc(-c2ccccc2S(=O)(=O)NC#N)cc1)C(=O)c1ccccc1F [Example 93] — higher, 92.9%
- N#CNS(=O)(=O)c1ccccc1-c1ccc(CN(Cc2ccc(Cl)c(Cl)c2)C(=O)Cc2ccccc2[N+](=O)[O-])cc1 [Example 261] — higher, 67.7%
- C[C@H](c1ccccc1)N(Cc1ccc(-c2ccccc2S(=O)(=O)NC#N)cc1)C(=O)c1ccccc1Cl [Example 108] — higher, 87.7%
- N#CNS(=O)(=O)c1ccccc1-c1ccc(CN(Cc2ccc(Cl)c(Cl)c2)C(=O)C(=O)c2ccco2)cc1 [Example 263] — higher, 54.0%
- N#CNS(=O)(=O)c1ccccc1-c1ccc(CN(Cc2ccccc2Cl)C(=O)c2cc3ccccc3s2)cc1 [Example 71] — higher, 35.2%
- CC(C)(C)OC(=O)C(c1ccccc1)N(Cc1ccc(-c2ccccc2S(=O)(=O)NC#N)cc1)C(=O)CCc1cccs1 (centres unmarked) [Example 287] — higher, 51.1%
- CN(C)c1ccc(CN(Cc2ccc(-c3ccccc3S(=O)(=O)NC#N)cc2)C(=O)Cc2cccs2)cc1 [Example 140] — higher, 54.2%
- COc1ccc(CC(=O)N(Cc2ccc(F)cc2)Cc2ccc(-c3ccccc3S(=O)(=O)NC#N)cc2)cc1 [Example 177] — higher, 64.4%
- Cc1cccc(CN(Cc2ccc(-c3ccccc3S(=O)(=O)NC#N)cc2)C(=O)Cc2cccs2)c1 [Example 311] — lower, 10.4%

same assay, conditions: 10 μM compound; human endothelial cells (ECV-304); related to 100% and 0% pHi recovery controls

With N#CNS(=O)(=O)c1ccccc1-c1ccc(CN(Cc2ccccc2)S(=O)(=O)c2cccs2)c(Cl)c1 [Example 556, 4′-{[Benzyl-(2-thiophen-2-sulfonyl)amino]methyl}-3′-chlorobiphenyl-2-sulfonylcyanamide] the “Residual activity of the NCBE at 10 μM” value was 0%.

same assay, conditions: compound at 10 μM; R(3) to R(7) hydrogen series

Point of comparison: N#CNS(=O)(=O)c1ccccc1-c1ccc(CN(CC2(c3ccccc3)CCCC2)C(=O)Cc2cccs2)cc1 [Example 392], “Residual activity % of the NCBE at 10 μM” value 55.6%. Against it:
- N#CNS(=O)(=O)c1ccccc1-c1ccc(CN(Cc2cccc3ccccc23)C(=O)Cc2ccco2)cc1 [Example 391] — lower, 55.4%
- N#CNS(=O)(=O)c1ccccc1-c1ccc(CN(Cc2cccc(-c3ccccc3)c2)C(=O)CC2CCCC2)cc1 [Example 367] — lower, 25.5%

same assay, conditions: compound at 10 μM; sub-table with R7 substituent

Point of comparison: Cc1ccc(-c2ccc(CN(Cc3ccccc3F)C(=O)Cc3ccsc3)cc2)c(S(=O)(=O)NC#N)c1 [Example 543], “Residual activity % of the NCBE at 10 μM” value 55.3%. Against it:
- Cc1ccc(-c2ccc(CN(Cc3ccccc3F)C(=O)C(C)c3cccs3)cc2)c(S(=O)(=O)NC#N)c1 (centres unmarked) [Example 527] — higher, 67.5%
- Cc1ccc(-c2ccc(CN(Cc3cccc(Cl)c3Cl)C(=O)C(C)c3cccs3)cc2)c(S(=O)(=O)NC#N)c1 (centres unmarked) [Example 528] — higher, 72.0%
- Cc1ccc(-c2ccc(CN(CCc3ccccc3)C(=O)Cc3ccc(Cl)cc3)cc2)c(S(=O)(=O)NC#N)c1 [Example 534] — higher, 80.0%
- Cc1ccc(-c2ccc(CN(Cc3ccccc3Cl)C(=O)Cc3cccs3)cc2)c(S(=O)(=O)NC#N)c1 [Example 516] — higher, 98.7%
